# Assay results published in PMC5856786, “A DHODH inhibitor increases p53 synthesis and enhances tumor cell killing by p53 degradation blockage” (Nature Communications, 2018).
# Structures can show the parent of a compound that is named as a salt.
# Biological target: recombinant human DHODH (Homo sapiens, UniProt Q02127)
# Experiment: Endpoint DHODH enzyme assay (coenzyme Q10, DCIP)
# Format: biochemical
# Design: purchased Prospecbio ENZ-642
# Conditions: compound at 10 µM; Supplementary Table 5, 20,000 compound library
# Method: In Supplementary Tables 5 and 6, endpoint assays were performed with 10 nM recombinant human DHODH (#ENZ-642, Prospecbio). The reaction mixture consisted of 624.6 µM DL-dihydroorotic acid, 66.4 µM coenzyme Q10, 66.4 µM 2,6-dichlorophenolindophenol sodium salt (DCIP) (all reagents purchased from Sigma-Aldrich) in enzyme buffer (50 mM Tris-HCl, pH 8.0, 0.1% Triton X-100, 150 mM KCl). Loss in absorbance by DCIP was measured at 595 nm after incubation at RT for 60 min.
# recombinant human DHODH, sequence (Q02127 31-395 limits assumed): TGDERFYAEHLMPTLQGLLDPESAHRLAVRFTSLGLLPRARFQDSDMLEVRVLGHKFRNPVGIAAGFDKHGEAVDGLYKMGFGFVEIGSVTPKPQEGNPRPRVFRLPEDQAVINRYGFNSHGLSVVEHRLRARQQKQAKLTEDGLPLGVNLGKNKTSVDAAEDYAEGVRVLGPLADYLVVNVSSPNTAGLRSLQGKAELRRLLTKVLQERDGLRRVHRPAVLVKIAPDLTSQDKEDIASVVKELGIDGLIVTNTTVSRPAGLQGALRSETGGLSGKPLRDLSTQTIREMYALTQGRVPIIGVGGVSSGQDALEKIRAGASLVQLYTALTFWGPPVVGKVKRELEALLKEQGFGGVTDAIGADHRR
remaining DHODH activity (%) Average [%],remaining activity at 10 µM [%],SMILES
5.94,–,"COc1cccc(-c2noc(-c3ccc(N4C[C@H]5CC[C@H]4C5)nc3)n2)c1OC (relative stereo) [compound 75901793, (1S*,4S*)-2-{5-[3-(2,3-dimethoxyphenyl)-1,2,4-oxadiazol-5-yl]-2-pyridinyl}-2-azabicyclo[2.2.1]heptane]"
–,32,"O=C(Nc1ccc2ccccc2c1)C12CC3CC(CC(C3)C1)C2 [compound 5135537, N-2-naphthyl-1-adamantanecarboxamide]"
–,82.9,"CCOC(=O)c1c(-c2ccccc2)csc1NC(=O)c1cc(OC)c(OC)c(OC)c1 [compound 5264537, ethyl 4-phenyl-2-[(3,4,5-trimethoxybenzoyl)amino]-3-thiophenecarboxylate]"
–,90.4,"O=C(Nc1cc(Cl)ccc1Cl)c1ccc([N+](=O)[O-])o1 [compound 5351342, N-(2,5-dichlorophenyl)-5-nitro-2-furamide]"
–,73.5,"CCc1ccc(NC(=O)c2ccc([N+](=O)[O-])o2)cc1 [compound 5351720, N-(4-ethylphenyl)-5-nitro-2-furamide]"
–,83.8,"COc1ccc(Cl)cc1NC(=O)c1ccc([N+](=O)[O-])o1 [compound 5356839, N-(5-chloro-2-methoxyphenyl)-5-nitro-2-furamide]"

# Same assay, conditions: compound at 10 µM; Supplementary Table 6, 30,000 compound library
remaining activity at 10 µM [%],remaining DHODH activity (%) Average [%],SMILES
19.2,–,"Cc1cccn(CC(=O)c2ccc(-c3ccccc3)cc2)c1=N [compound 5120580, 1-(4-biphenylyl)-2-(2-imino-3-methyl-1(2H)-pyridinyl)ethanone hydrobromide]"
101,–,"COCCOC(=O)Nc1nc2sc3c(c2s1)CCCC3 [compound 5175570, 2-methoxyethyl 5,6,7,8-tetrahydro[1]benzothieno[2,3-d][1,3]thiazol-2-ylcarbamate]"
96.8,–,"CCN(CC)c1ccc2cc(-c3nc4ccccc4n3C)c(=O)oc2c1 [compound 5213776, 7-(diethylamino)-3-(1-methyl-1H-benzimidazol-2-yl)-2H-chromen-2-one]"
92.1,–,"CCN(CC)c1ccc2cc(-c3nc4ccccc4o3)c(=O)oc2c1 [compound 5213777, 3-(1,3-benzoxazol-2-yl)-7-(diethylamino)-2H-chromen-2-one]"
100,–,"COc1ccccc1NC1=CC(=O)CC(c2ccccc2)C1 (stereo not shown) [compound 5220809, 3-[(2-methoxyphenyl)amino]-5-phenyl-2-cyclohexen-1-one]"
43.5,–,"O=C1NC(c2ccc3ccccc3c2)Nc2sc3c(c21)CCCC3 (stereo not shown) [compound 5232020, 2-(2-naphthyl)-2,3,5,6,7,8-hexahydro[1]benzothieno[2,3-d]pyrimidin-4(1H)-one]"
–,-1.54,"O=C1C(O)=C(c2ccc(-c3ccccc3)cc2)C(=O)c2ccccc21 [compound 5248918, 2-(4-biphenylyl)-3-hydroxynaphthoquinone]"
100,–,"O=C(NN=Cc1ccc(Br)cc1)C1COc2ccccc2O1 (stereo not shown) [compound 5249701, N'-(4-bromobenzylidene)-2,3-dihydro-1,4-benzodioxine-2-carbohydrazide]"
55.7,–,"Brc1ccc2[nH]c3c(c2c1)CCCC3NCCc1ccccc1 (stereo not shown) [compound 5265927, 6-bromo-N-(2-phenylethyl)-2,3,4,9-tetrahydro-1H-carbazol-1-amine hydrochloride]"
–,98.57,"Oc1ccccc1C=Nc1ccc2cc3ccc(N=Cc4ccccc4O)cc3nc2c1 [compound 5267938, 2,2'-[3,6-acridinediylbis(nitrilomethylylidene)]diphenol]"
97.5,–,"COc1ccccc1N1CCN(C(=O)c2ccc(Cl)c([N+](=O)[O-])c2)CC1 [compound 5276937, 1-(4-chloro-3-nitrobenzoyl)-4-(2-methoxyphenyl)piperazine]"
–,98.93,"COc1ccccc1N1C(=O)C(=C2C(=O)Nc3ccc(Br)cc32)SC1=S [compound 5284467, 5-bromo-3-[3-(2-methoxyphenyl)-4-oxo-2-thioxo-1,3-thiazolidin-5-ylidene]-1,3-dihydro-2H-indol-2-one]"
100,–,"Nc1cccc2c1C(=O)c1cccc(NC(=O)c3ccccc3)c1C2=O [compound 5301107, N-(5-amino-9,10-dioxo-9,10-dihydro-1-anthracenyl)benzamide]"
12.6,–,"Cc1ccc2[nH]c3c(c2c1)CCCC3NC1CCCCC1 (stereo not shown) [compound 5303009, N-cyclohexyl-6-methyl-2,3,4,9-tetrahydro-1H-carbazol-1-amine]"
–,92.49,"O=C(NN=CC(Br)=Cc1ccccc1)c1n[nH]c2c1CCC2 [compound 5313702, N'-(2-bromo-3-phenyl-2-propen-1-ylidene)-1,4,5,6-tetrahydrocyclopenta[c]pyrazole-3-carbohydrazide]"
101,–,"Cc1ccccc1C=Nc1ccccc1C(N)=O [compound 5320101, 2-[(2-methylbenzylidene)amino]benzamide]"
97.6,–,"NC(=O)c1ccccc1N=Cc1cccc(Cl)c1 [compound 5321611, 2-[(3-chlorobenzylidene)amino]benzamide]"
98.8,–,"O=c1c(Cl)c(Cl)cnn1-c1ccc(Cl)c(C(F)(F)F)c1 [compound 5344759, 4,5-dichloro-2-[4-chloro-3-(trifluoromethyl)phenyl]-3(2H)-pyridazinone]"

remaining activity at 10 µM [%],remaining DHODH activity (%) Average [%],SMILES
8.96,–,"O=C(NN=Cc1ccc(O)cc1)c1cc(-c2ccccc2)nc2ccccc12 [compound 5347717, N'-(4-hydroxybenzylidene)-2-phenyl-4-quinolinecarbohydrazide]"
99.2,–,"COc1ccc(S(=O)(=O)Nc2ccc(I)cc2C)cc1 [compound 5351654, N-(4-iodo-2-methylphenyl)-4-methoxybenzenesulfonamide]"
101,–,"c1ccc(NN=C2CCc3ccccc3N2)cc1 [compound 5373649, 3,4-dihydro-2(1H)-quinolinone phenylhydrazone hydrochloride]"
58.2,–,"NN=C1CCCc2c1[nH]c1ccc(Br)cc21 [compound 5373779, 6-bromo-2,3,4,9-tetrahydro-1H-carbazol-1-one hydrazone]"
100,–,"Cc1ccc(C=NNC(=O)c2c(C)nc3ccc(Cl)cn23)cc1 [compound 5378429, 6-chloro-2-methyl-N'-(4-methylbenzylidene)imidazo[1,2-a]pyridine-3-carbohydrazide]"
98.4,–,"Cc1ccc(OCC(=O)NN=Cc2ccc(-c3ccc(Br)cc3)o2)cc1 [compound 5472837, N'-{[5-(4-bromophenyl)-2-furyl]methylene}-2-(4-methylphenoxy)acetohydrazide]"
98,–,"O=C(NN=Cc1cccc(Oc2ccccc2)c1)c1cccc([N+](=O)[O-])c1 [compound 5545710, 3-nitro-N'-(3-phenoxybenzylidene)benzohydrazide]"
78.1,–,"Cc1ccc(C=NNC(=O)COc2ccccc2Br)c(C)c1 [compound 5554099, 2-(2-bromophenoxy)-N'-(2,4-dimethylbenzylidene)acetohydrazide]"
42.5,–,"COc1ccc(CNc2ccc(Br)c(C)c2)cc1Br [compound 5561538, (3-bromo-4-methoxybenzyl)(4-bromo-3-methylphenyl)amine]"
98.4,–,"O=c1[nH]c(C=Cc2ccccc2)nc2sc3c(c12)CCCC3 [compound 5625039, 2-(2-phenylvinyl)-5,6,7,8-tetrahydro[1]benzothieno[2,3-d]pyrimidin-4(3H)-one]"
68.4,–,"Cn1c2ccccc2n2c(C(O)C(Cl)(Cl)Cl)c(-c3ccccc3)nc12 (stereo not shown) [compound 5650027, 2,2,2-trichloro-1-(9-methyl-2-phenyl-9H-imidazo[1,2-a]benzimidazol-3-yl)ethanol]"
–,92.20,"Cc1ccc2[nH]c3c(c2c1)CCCC3NC=C1C(=O)CC(C)(C)CC1=O (stereo not shown) [compound 5666613, 5,5-dimethyl-2-{[(6-methyl-2,3,4,9-tetrahydro-1H-carbazol-1-yl)amino]methylene}-1,3-cyclohexanedione]"
48.5,–,"O=C1Nc2ccccc2C1=CNC1CCCc2c1[nH]c1ccccc21 (stereo not shown) [compound 5666718, 3-[(2,3,4,9-tetrahydro-1H-carbazol-1-ylamino)methylene]-1,3-dihydro-2H-indol-2-one]"
71,–,"O=C(Nc1nc2ccccc2s1)C1c2ccccc2Oc2ccccc21 [compound 5704541, N-1,3-benzothiazol-2-yl-9H-xanthene-9-carboxamide]"
66.1,–,"COc1ccc2c(c1)c(C=Cc1nc3ccccc3c(=O)[nH]1)c(C)n2C [compound 5705453, 2-[2-(5-methoxy-1,2-dimethyl-1H-indol-3-yl)vinyl]-4(3H)-quinazolinone]"
82.5,–,"CN(C)c1ccc(C=Cc2nc3ccccc3c(=O)[nH]2)cc1 [compound 5705506, 2-{2-[4-(dimethylamino)phenyl]vinyl}-4(3H)-quinazolinone]"
96.8,–,"CCOc1ccc(S(=O)(=O)Nc2cc(Br)c3oc(C)c(C(C)=O)c3c2)cc1 [compound 5754791, N-(3-acetyl-7-bromo-2-methyl-1-benzofuran-5-yl)-4-ethoxybenzenesulfonamide]"
59.6,–,"O=[N+]([O-])c1ccc2[nH]c3c(c2c1)CCCC3NC1CCN(CCc2ccccc2)CC1 (stereo not shown) [compound 5781441, 6-nitro-N-[1-(2-phenylethyl)-4-piperidinyl]-2,3,4,9-tetrahydro-1H-carbazol-1-amine]"

SMILES,remaining activity at 10 µM [%],remaining DHODH activity (%) Average [%]
"COc1ccc(CC(C)NC2CCCc3c2[nH]c2ccc([N+](=O)[O-])cc32)cc1OC (stereo not shown) [compound 5781442, N-[2-(3,4-dimethoxyphenyl)-1-methylethyl]-6-nitro-2,3,4,9-tetrahydro-1H-carbazol-1-amine]",78.3,–
